Data: patent US12545936B2, “Expression and secretion of UV absorbent material from transformed bacteria” (University of Cincinnati, priority 2021, dated 2026)
“Also recorded” adds a separate entry of the source.

Test system: human skin tissues
Experiment: UV irradiation of human skin explants, cleaved caspase-3 immunohistochemical staining
Type: cell-based
Experimental: MAAs extracted from the engineered bacteria of the present invention were evaluated. Human skin was obtained from discarded tissue from elective procedures. The skin tissue was cleaned, trimmed, sterilized and plated in an organ culture medium overnight at 33° C. MAA extract or appropriate controls were applied on skin tissues, after which they were exposed to 135 mJ/cm2 UV-A and UV-B light. The application of live bacteria on human skin tissue was subsequently tested. Different treatments viz. overnight culture of wild type EcN, 10% zinc oxide solution, or overnight culture of EcN expressing shinorine were applied on human skin explants. Treatments were allowed to equilibrate with skin tissue for 1 hour, after which tissues were exposed to UV radiation. The tissues were then incubated for different durations and subsequently fixed. Cleaved caspase-3 immunohistochemical staining was performed to check for DNA damage. Slides were imaged using Leica Slide Scanner and representative images were captured. The captured images were quantified using ImageJ with a modified, previously published protocol (Crowe and Yue, 2019).

COC1=C(NCC(=O)O)C[C@@](O)(CO)C/C1=N\[C@@H](CO)C(=O)O [shinorine]
preventing and/or reducing UV-induced DNA damage compared to untreated group (MAA extract applied on human skin tissue, 135 mJ/cm2 UV-A and UV-B, three days post exposure, cleaved caspase-3 IHC): significantly effective | efficacy vs. 10% zinc oxide against UV-induced DNA damage (human skin tissue, 72 h post UV irradiation, comparator 10% ZnO, FIG. 7): significant efficacy; also recorded: significantly more effective
